According to patent US8686003B2, “Tissue non-specific alkaline phosphatase inhibitors and uses thereof for treating vascular calcification” (Sanford-Burnham Medical Research Institute, priority 2007, dated 2014):
pIC50, pKi: −log10 of the molar value.

These compounds were tested against T1, tissue-nonspecific alkaline phosphatase (TNAP) (Homo sapiens, UniProt P05186) (assay: TNAP inhibition screening assay (colorimetric pNPP / luminescence CDP-star), IC50). Conditions: Tables A-H; tissue-nonspecific alkaline phosphatase inhibitors.
T1 construct: made in house; host or cells: COS-1 cells, transient expression; dialyzed serum-free conditioned medium
T1 sequence (P05186 18-502 limits assumed): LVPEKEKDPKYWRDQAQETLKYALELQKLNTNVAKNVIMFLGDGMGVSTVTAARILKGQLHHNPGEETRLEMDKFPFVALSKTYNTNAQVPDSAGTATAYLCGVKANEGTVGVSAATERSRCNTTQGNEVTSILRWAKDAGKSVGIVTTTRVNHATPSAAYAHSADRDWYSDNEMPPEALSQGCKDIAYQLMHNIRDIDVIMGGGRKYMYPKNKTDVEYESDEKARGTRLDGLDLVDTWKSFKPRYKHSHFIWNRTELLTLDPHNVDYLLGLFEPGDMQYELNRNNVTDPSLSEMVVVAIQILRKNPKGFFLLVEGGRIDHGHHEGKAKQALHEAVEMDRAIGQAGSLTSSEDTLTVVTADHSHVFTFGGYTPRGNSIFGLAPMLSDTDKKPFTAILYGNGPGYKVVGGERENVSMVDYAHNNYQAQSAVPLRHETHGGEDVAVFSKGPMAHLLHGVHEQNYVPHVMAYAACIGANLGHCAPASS
Assay type: biochemical
Protocol: (§1) Expression plasmids containing a secreted epitope-tagged TNAP, PLAP and IAP were transfected into COS-1 cells for transient expression using a standard electroporation method. Medium was replaced to Opti-MEM 24 hours later, and the serum free media containing secreted proteins were collected 60 hours after electroporation. Conditioned medium was dialyzed against TBS containing 1 mM MgCl2 ad 20 μM ZnCl2 (to remove phosphate) and filtrated with a 2 μm cellulose acetate filter.
A TNAP stock solution was diluted 120-fold and about 12 ul of diluted TNAP solution were dispensed into 96 well microtiter plates with half area bottom (Costar, Corning, N.Y.) by an auto dispenser (Matrix, Hudson, N.H.). A robotic liquid handler, Biomek™ FX (Beckman Coulter, Fullerton, Calif.) dispensed about 2.5 μl of each compound (dissolved in 10% DMSO) from the library plates. Plates were incubated at room temperature for at least one hour to allow TNAP to interact with each compound prior to addition of about 10.5 μl substrate solution (1.19 mM pNPP). After about 30 minutes of incubation, A405 nm was measured with a microtiter plate reader, Analyst™ HT (Molecular Devices, Sunnyvale, Calif.). Both the enzyme (TNAP) and substrate (pNPP) solution were made in diethanolamine (DEA) buffers; the final reaction contains 1M DEA-HCl buffer, pH about 9.8, containing about 1 mM MgCl2 and about 20 μM ZnCl2.
Compound aliquots (4 uL @ 100 uM in 10% DMSO) were added with about 8 uL of TNAP working solution, prepared by 800-fold dilution of TNAP in 2.5-fold assay buffer (250 mM DEA, pH 9.8, 2.5 mM MgCl2, 0.05 mM ZnCl2). CDP-star substrate solution (about 8 uL of 125 uM in water) was added to each well. […] Plates (white 384-well small volume Greiner 784075) were incubated at room temperature for about 0.5 hour and luminescence signal was measured using an EnVision plate reader (PerkinElmer).

Compared with `Cn1ncc2c1ncn1nc(CCc3ccccc3)nc21` [Compound E21], `Cn1ncc2c1ncn1c(-c3ccccc3Cl)nnc21` [Compound E14] is 0.43 log units higher in pIC50: 4.80 for the first, 5.23 for the second. The second is the more potent here.

First: Oc1cc(-c2cccc3ccccc23)n[nH]1 [Compound A5, 3-(napthalen-1-yl)-1H-pyrazol-5-ol]
Second: O=C(O)c1cc(-c2ccccc2Cl)n[nH]1 [Compound A1, 3-(2-chlorophenyl)-1H-pyrazole-5-carboxylic acid]
The pIC50 of the first is 0.68 log units lower: 5.49 for the first, 6.17 for the second.

`O=P(O)(O)c1ccccc1OCCCCCOc1ccccc1P(=O)(O)O` [Compound G2] and `O=P(O)(O)c1ccccc1OCCOCCOc1ccccc1P(=O)(O)O` [Compound G1] are within 0.2 log units of each other in pIC50: 5.69 for the first, 5.78 for the second.

Going from `Cc1cc(NC(=O)COC(=O)c2[nH]nc3ccccc23)no1` [Compound B8, 2-(5-methylisoxazol-3-ylamino)-2-oxoethyl 2H-indazole-3-carboxylate] to `COC(=O)c1cc(-c2c[nH]c3ccccc23)[nH]n1` [Compound A2, methyl 3-(1H-indol-3-yl)-1H-pyrazole-5-carboxylate], the pIC50 rises from 5.03 to 6.09 (1.06 log units). The second is the more potent here.

Compared with `COc1ccc(-c2nc3n(n2)C(=O)CC(c2ccco2)S3)cc1` (stereo not shown) [Compound E9], `COc1ccc(-c2nnc3oc(O)cc(C)c2-3)cc1` [Compound B5, 3-(4-methoxyphenyl)-4-methylpyrano[2,3-c]pyrazol-6-ol] is 0.45 log units higher in pIC50: 5.42 for the first, 5.87 for the second. The second is the more potent here.

Compared with `CC1(C)CC(=O)c2c(n[nH]c2-c2cccs2)C1` [Compound B2, 6,6-dimethyl-3-(thiophen-2-yl)-6,7-dihydro-2H-indazol-4(5H)-one], `CC1(C)CC(=O)c2c(n[nH]c2Cc2ccccc2)C1` [Compound B3, 3-benzyl-6,6-dimethyl-6,7-dihydro-2H-indazol-4(5H)-one] is 0.80 log units higher in pIC50: 5.44 for the first, 6.24 for the second.

Compared with `Cn1cccc1-c1cc(C(=O)O)[nH]n1` [Compound A7, 3-(1-methyl-1H-pyrrol-2-yl)-1H-pyrazole-5-carboxylate], `O=C(O)c1cc(-c2ccc(Cl)cc2)n[nH]1` [Compound A3, 3-(4-chlorophenyl)-1H-pyrazole-5-carboxylic acid] is 1.03 log units higher in pIC50: 4.99 for the first, 6.02 for the second.

First: [H]/N=C(C)\C(C#N)=C(\O)CSc1nnc(-c2ccccc2Br)[nH]1 [Compound E4]
Second: O=C(CSc1nnc(-c2ccccc2Br)[nH]1)NC(=O)NCc1ccco1 [Compound C4, 2-[5-(2-bromophenyl)-4H-1,2,4-triazol-3-ylthio]-N-(furan-2-ylmethylcarbamoyl)acetamide]
The pIC50 of the first is 0.37 log units higher: 5.97 for the first, 5.60 for the second. The first is the more potent here.

Going from `COC(=O)c1cc(-c2ccccc2)n[nH]1` [Compound A4, methyl 3-phenyl-1H-pyrazole-5-carboxylate] to `COC(=O)c1cc(-c2ccc(Br)cc2)n[nH]1` [Compound A8, methyl 3-(4-bromophenyl)-1H-pyrazole-5-carboxylate], the pIC50 rises from 6.01 to 6.51 (0.50 log units). The second is the more potent here.

First: CCOC(=O)C1C(=O)Nc2nc3ccccc3n2C1C(C)C (stereo not shown) [Compound E10]
Second: CC(C)C1N=C2c3ccccc3N=C(SCC(=O)c3ccc(O)c(O)c3)N2C1=O (stereo not shown) [Compound E18]
The pIC50 of the first is 0.41 log units higher: 5.40 for the first, 4.99 for the second. The first is the more potent here.

First: CCCSc1nnc(NC(C)=O)[nH]1 [Compound E3]
Second: COc1ccccc1-c1nnc(NC(C)=O)[nH]1 [Compound E5]
The pIC50 of the first is 0.47 log units higher: 6.17 for the first, 5.70 for the second.

Going from `Cc1ccc(-n2ccc3c2ncn2c(C)nnc32)cc1C` [Compound E17] to `Cc1nc2c3cnn(-c4ccc(C)c(C)c4)c3ncn2n1` [Compound E20], the pIC50 falls from 5.10 to 4.89 (0.21 log units). The first is the more potent here.

`Clc1ccccc1-c1n[nH]c(-c2ccccc2)n1` [Compound E8] and `Nc1nc(CSc2n[nH]c(-c3ccccc3)n2)nc(Nc2ccccc2)n1` [Compound C1, N^2-phenyl-6-[(5-phenyl-1H-1,2,4-triazol-3-ylthio)methyl]-1,3,5-triazine-2,4-diamine] are within 0.2 log units of each other in pIC50: 5.61 for the first, 5.69 for the second.

`N#C/C(=C\c1ccc(O)c(O)c1)C(=O)NCCCc1ccccc1` [Compound H2] and `O=C(CCCn1c(SCC(=O)c2ccc(O)c(O)c2)nc2ccccc2c1=O)NCC1CCCO1` (stereo not shown) [Compound H1] are within 0.2 log units of each other in pIC50: 5.29 for the first, 5.33 for the second.

Compared with `Cc1ccsc1/C=c1\sc2ncnn2c1=O` [Compound E19], `Cc1cc(O)oc2nnc(-c3ccccc3)c1-2` [Compound B4, 4-methyl-3-phenylpyrano[2,3-c]pyrazol-6-ol] is 1.05 log units higher in pIC50: 4.95 for the first, 6.00 for the second. The second is the more potent here.

Going from `COc1ccc2c(c1)CCc1c-2n[nH]c1C(=O)O` [Compound B9, 7-methoxy-4,5-dihydro-2H-benzo [g]indazole-3-carboxylic acid] to `O=C(O)c1[nH]nc2c1COc1ccccc1-2` [Compound B10, 2,4-dihydrochromeno[4,3-c]pyrazole-3-carboxylic acid], the pIC50 falls from 6.49 to 5.87 (0.62 log units). The first is the more potent here.

First: c1ccc(-c2n[nH]c3c2CCC3)cc1 [Compound B11, 3-phenyl-1,4,5,6-tetrahydrocyclopenta[c]pyrazole]
Second: Nc1[nH]nc(-c2ccc(Br)cc2)c1Cl [Compound A6, 3-(4-bromophenyl)-4-chloro-1-H-pyrazol-5-amine]
The pIC50 of the first is 0.28 log units higher: 5.47 for the first, 5.19 for the second.

First: COCc1n[nH]c2c1C(c1cc(OC)c(O)c(OC)c1)C(C#N)=C(N)O2 (stereo not shown) [Compound B6, 6-amino-4-(4-hydroxy-3,5-dimethoxyphenyl)-3-(methoxymethyl)-1,4-dihydropyrano[2,3-c]pyrazole-5-carbonitrile]
Second: COc1cc(C(=O)Nc2cc(-c3ccccc3)n[nH]2)cc(OC)c1OC [Compound E7]
The pIC50 of the first is 0.34 log units lower: 5.28 for the first, 5.62 for the second. The second is the more potent here.

`COc1ccc(OC)c(C(=O)CSc2nc3ccc[nH]c-3n2)c1` [Compound E12] and `O=C(CSc1nc2ccc[nH]c-2n1)c1ccc(F)cc1` [Compound E15] are within 0.2 log units of each other in pIC50: 5.33 for the first, 5.20 for the second.

Going from `O=C(CSc1nnc(-c2ccccc2)[nH]1)NC(=O)NCc1ccco1` [Compound C5, N-(furan-2-ylmethylcarbamoyl)-2-(5-phenyl-4H-1,2,4-triazol-3-ylthio)acetamide] to `COc1ccccc1-c1nnc(SCc2ccccn2)[nH]1` [Compound C2, 2-((5-(2-methoxyphenyl)-4H-1,2,4-triazol-3-ylthio)methyl)pyridine], the pIC50 falls from 5.80 to 5.42 (0.38 log units).

First: O=C1C2CC=CCC2C(=O)N1c1nnc(Cc2ccccc2)[nH]1 (stereo not shown) [Compound E2]
Second: Oc1nc2cc(Cl)ccc2n1-c1ccccc1 [Compound E13]
The pIC50 of the first is 1.21 log units higher: 6.48 for the first, 5.27 for the second. The first is the more potent here.

Going from `COc1ccc(OC)c(S(=O)(=O)Nc2ccc(O)c(Sc3nc[nH]n3)c2)c1` [Compound F4] to `COc1ccc(C)cc1S(=O)(=O)Nc1cccnc1` [Compound F2], the pIC50 rises from 5.07 to 6.12 (1.05 log units). The second is the more potent here.

Going from `CCOC(=O)c1sc(NC(=O)CSc2nnc(-c3ccccc3OC)[nH]2)c(C#N)c1C` [Compound C3, ethyl 4-cyano-5-{2-[5-(2-methoxyphenyl)-4H-1,2,4-triazol-3-ylthio]acetamide}-3-methylthiophene-2-carboxylate] to `COc1cc(CSc2nnc[nH]2)c(OC)cc1CSc1nnc[nH]1` [Compound E6], the pIC50 rises from 5.27 to 5.70 (0.43 log units). The second is the more potent here.

Going from `Cc1cccc(C)c1OCc1nnc2c3cnn(C)c3ncn12` [Compound E16] to `CCOc1ccc(C)cc1S(=O)(=O)Nc1cccnc1` [Compound F3], the pIC50 rises from 5.16 to 5.71 (0.55 log units). The second is the more potent here.

Compared with `C=CCSc1nc(-c2ccc(OC)cc2)n[nH]1` [Compound E11], `CCCCc1[nH]nc2c1C(=O)CC(C)(C)C2` [Compound B1, 3-butyl-6,6-dimethyl-6,7-dihydro-2H-indazol-4(5H)-one] is 0.46 log units higher in pIC50: 5.36 for the first, 5.82 for the second. The second is the more potent here.

With `CC1(C)Cc2c(sc3cc4n(c(=N)c23)CCCCC4)CO1` [Compound E22] the pIC50 was 5.02.

Each compound was assayed against T2, human TNAP (Homo sapiens, UniProt P05186) (assay: Enzyme kinetic experiments, Ki and mechanism of TNAP inhibition). Conditions: Tables D and E; pH not given; read-out: Ki.
T2 construct: made in house; host or cells: COS-1 cells, transient expression; dialyzed serum-free conditioned medium
T2 sequence (P05186 18-502 limits assumed): T1 sequence (P05186 18-502 limits assumed)
Assay type: biochemical
Protocol: as §1
[…] TNAP, PLAP and IAP activities were adjusted to an approximate ΔA405 nm, equivalent to 1, measured after 30 min. Residual AP activity in the presence of inhibitors was expressed as percentage of the control activity. To investigate the mechanism of inhibition, double reciprocal plots of enzyme activity (expressed as mA405 nm min^−1) vs. substrate concentration were constructed, in the presence of various concentrations of added inhibitors (0-30 μM). The y-axis intercepts of the 1/v vs. 1/[S] plots, were then plotted vs. [I] to graphically extract Ki values as the x-intercept in this plot. […] Inhibitors were further tested and sorted based on their kinetic properties at pH 7.4 using PPi, the relevant natural substrate of TNAP. […] Amounts of released phosphate were measured using the Biomol Green Reagent (Biomol Research Laboratories, Inc., Plymouth Meeting, Pa.).

For `Cn1ccnc1Sc1nc(Nc2ccccc2)nc(Nc2ccccc2)n1` [Compound E1], the pKi was 5.25.
